# Earlier results as cited in US20030109508A1, “Methods for treating dry eye” (Alcon, Inc., priority 2001, published 2003).
# Test system: human conjunctival epithelial cells
# Settings: background statement, no data given
structure (smiles),measurement,value
CCCCC[C@H](O)/C=C/C=C\C/C=C\C/C=C\CCCC(=O)O [15-HETE],secretion of mucin-1 (MUC-1),increase the secretion of mucin-1 (MUC-1)
